# According to PubChem BioAssay AID1963433 (Molecular Pharmacology Branch, DTP, NCI, 2024):
# Tested on: 772245-204-R-J1-PDC complex spheroid growth
# Experiment: Anticancer human tumor 772245-204-R-J1-PDC patient-derived rhabdomyosarcoma cell line growth inhibition [Asc]
# Settings: for IC50: curve of first compound; for viability, T/C: stronger effect = lower value
# Method in brief: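 Tumor cells were grown as complex spheroids with human endothelial cells (HUVEC) and human mesenchymal stem cells as stroma. Agents were tested alone and in combination, in half-log steps down from the clinical Cmax, or from 10 microM where Cmax was unknown.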
# 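Further: compound exposure lasted seven days.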
# 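Wherever viability, T/C is given: 100% = DMSO vehicle control viability.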
smiles,measurement,setting,value
C#Cc1c(F)ccc2cc(O)cc(-c3ncc4c(N5CC6CCC(C5)N6)nc(OCC56CCCN5CC(F)C6)nc4c3F)c12 (stereo not given) + Cc1c(S(C)(=O)=O)c(-c2cc(F)cc(N3CCN(c4ccc(NS(=O)(=O)c5ccc(NC(CCN6CCC(C(=O)OCCCP(=O)(O)O)CC6)CSc6ccccc6)c(S(=O)(=O)C(F)(F)F)c5)cc4)CC3)c2)c(-c2ccc(Cl)cc2)n1C(C)C,IC50,second compound 0.1 µM,9.71 µM
same,IC50,second compound 0.316 µM,2.03 µM
same,IC50,second compound 1 µM,3.74 µM
same,IC50,second compound 3.16 µM,< 0.0316 µM
same,IC50,second compound 10 µM,1.03 µM
same,"viability, T/C","second compound 0.1 µM, first compound 0.0316 µM",72.8%
same,"viability, T/C","second compound 0.1 µM, first compound 0.1 µM",93.2%
same,"viability, T/C","second compound 0.1 µM, first compound 0.316 µM",85.6%
same,"viability, T/C","second compound 0.1 µM, first compound 1 µM",71.6%
same,"viability, T/C","second compound 0.1 µM, first compound 3.16 µM",72.7%
same,"viability, T/C","second compound 0.1 µM, first compound 10 µM",49%
same,"viability, T/C","second compound 0.316 µM, first compound 0.0316 µM",60.4%
same,"viability, T/C","second compound 0.316 µM, first compound 0.1 µM",66.2%
same,"viability, T/C","second compound 0.316 µM, first compound 0.316 µM",62.3%
same,"viability, T/C","second compound 0.316 µM, first compound 1 µM",56%
same,"viability, T/C","second compound 0.316 µM, first compound 3.16 µM",46.3%
same,"viability, T/C","second compound 0.316 µM, first compound 10 µM",38.2%
same,"viability, T/C","second compound 1 µM, first compound 0.0316 µM",49.8%
same,"viability, T/C","second compound 1 µM, first compound 0.1 µM",55.4%
same,"viability, T/C","second compound 1 µM, first compound 0.316 µM",51.5%
same,"viability, T/C","second compound 1 µM, first compound 1 µM",56.8%
same,"viability, T/C","second compound 1 µM, first compound 3.16 µM",54.1%
same,"viability, T/C","second compound 1 µM, first compound 10 µM",29.7%
same,"viability, T/C","second compound 3.16 µM, first compound 0.0316 µM",49.8%
same,"viability, T/C","second compound 3.16 µM, first compound 0.1 µM",46.7%
same,"viability, T/C","second compound 3.16 µM, first compound 0.316 µM",47.1%
same,"viability, T/C","second compound 3.16 µM, first compound 1 µM",37%
same,"viability, T/C","second compound 3.16 µM, first compound 3.16 µM",30.7%
same,"viability, T/C","second compound 3.16 µM, first compound 10 µM",13.8%
same,"viability, T/C","second compound 10 µM, first compound 0.0316 µM",44%
same,"viability, T/C","second compound 10 µM, first compound 0.1 µM",55.5%
same,"viability, T/C","second compound 10 µM, first compound 0.316 µM",44%
same,"viability, T/C","second compound 10 µM, first compound 1 µM",58.3%
same,"viability, T/C","second compound 10 µM, first compound 3.16 µM",34%
same,"viability, T/C","second compound 10 µM, first compound 10 µM",18.5%
